Each compound was assayed against human Factor XIIa (Homo sapiens (Human), UniProt P00748) (assay: Factor XIIa Assay). Settings: purified human Factor XIIa 500 pM; substrate n-Acetyl-Lys-Pro-Arg-AFC 100 μM; pH 7.4; read-out: FXIIa IC50.
human Factor XIIa, sequence (P00748 373-615): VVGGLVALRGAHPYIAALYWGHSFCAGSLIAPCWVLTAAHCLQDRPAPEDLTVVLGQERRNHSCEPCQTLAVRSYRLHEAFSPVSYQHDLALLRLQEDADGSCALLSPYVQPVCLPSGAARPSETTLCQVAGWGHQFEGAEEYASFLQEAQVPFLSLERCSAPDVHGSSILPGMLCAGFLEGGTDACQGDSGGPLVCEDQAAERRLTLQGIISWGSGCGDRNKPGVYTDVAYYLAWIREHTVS
Assay type: biochemical
Method: The effectiveness of a compound of the present invention as an inhibitor of Coagulation Factor XIIa can be determined using a relevant purified serine protease, and an appropriate synthetic substrate. The rate of hydrolysis of the chromogenic or fluorogenic substrate by the relevant serine protease was measured both in the absence and presence of compounds of the present invention. Assays were conducted at room temperature or at 37° C. […] A decrease in the rate of fluorescence change in the presence of inhibitor is indicative of enzyme inhibition. Such methods are known to one skilled in the art.
Factor XIIa activity determinations were made in 50 mM HEPES buffer containing 150 mM NaCl, 5 mM CaCl2, and 0.1% PEG 8000 (polyethylene glycol; JT Baker or Fisher Scientific) at pH 7.4. Determinations were made using purified human Factor XIIa at a final concentration of 500 pM (Sekisui Diagnostics) and the synthetic substrate, n-Acetyl-Lys-Pro-Arg-AFC, TFA salt (Sigma #C6608) at a concentration of 100 μM.
Times required to achieve equilibration between enzyme and inhibitor were determined in control experiments. Initial velocities of product formation in the absence (Vo) or presence of inhibitor (Vi) were measured. IC50 was determined as the concentration of I yielding Vi=Vo/2.
`O=C(NCc1cccs1)[C@@H]1CN(C(=O)Oc2cccc3c2CCNC3)CCN1C(=O)[C@@H](CC1CCCCC1)NC1CCCCC1` [Example 36, 1,2,3,4-tetrahydroisoquinolin-5-yl (3S)-4-(N,3-dicyclohexyl-D-alanyl)-3-[(thiophen-2-ylmethyl)carbamoyl]piperazine-1-carboxylate] showed an IC50 of 4.1 nM.
In the case of `O=C(NCc1cccs1)[C@@H]1CN(C(=O)Oc2cccc3cncnc23)CCN1C(=O)[C@@H](CC1CCCCC1)NC1CCCCC1` [Example 18, quinazolin-8-yl (3S)-4-(N,3-dicyclohexyl-D-alanyl)-3-[(thiophen-2-ylmethyl)carbamoyl]piperazine-1-carboxylate], the IC50 is reported as 4.5 nM.
Compound `CC(C)N[C@H](CCCCN1CCCCC1)C(=O)N1CCN(C2=NC(C)[C@H](c3cccc(C#N)c3)O2)C[C@H]1C(=O)NCc1cccs1` (stereo partly drawn) [Example 169, (2S)-4[5-(3-cyanophenyl)-4-methyl-4,5-dihydro-1,3-oxazol-2-yl]-1-[N-(1-methylethyl)-6-piperidin-1-yl-D-norleucyl]-N-(thiophen-2-ylmethyl)piperazine-2-carboxamide] has an IC50 of 12.5 nM.
Work on `CC(C)N[C@H](CCCCN1CCCCC1)C(=O)N1CCN(C2=N[C@@H](C)[C@H](c3ccccc3)O2)C[C@H]1C(=O)NCc1cccs1` [Example 115, (2S)-1-[N-(1-methylethyl)-6-piperidin-1-yl-D-norleucyl]-4-[(4S,5S)-4-methyl-5-phenyl-4,5-dihydro-1,3-oxazol-2-yl]-N-(thiophen-2-ylmethyl)piperazine-2-carboxamide] yielded an IC50 of 3.8 nM.
For `CS(=O)(=O)NCCCC[C@@H](NC1CCCCC1)C(=O)N1CCN(C(=O)Oc2ccc3ccccc3c2Cl)C[C@H]1C(=O)NCc1cccs1` [Example 70, 1-chloronaphthalen-2-yl (3S)-4-[N^2-cyclohexyl-N^6-(methylsulfonyl)-D-lysyl]-3-[(thiophen-2-ylmethyl)carbamoyl]piperazine-1-carboxylate], the IC50 was 20 nM.
Work on `Cc1ccc(OC(=O)N2CCN(C(=O)[C@@H](CC3CCCCC3)NC3CCCCC3)[C@H](C(=O)NCc3cccs3)C2)c(Cl)c1C` [Example 94, 2-chloro-3,4-dimethylphenyl (3S)-4-(N,3-dicyclohexyl-D-alanyl)-3-[(thiophen-2-ylmethyl)carbamoyl]piperazine-1-carboxylate] yielded an IC50 of 7.5 nM.
`C[C@@H]1N=C(N2CCN(C(=O)[C@H](NC3CCC(C(N)=O)CC3)[C@H]3CC[C@H](N4CCCCC4)CC3)[C@H](C(=O)NCc3cccs3)C2)O[C@H]1c1ccccc1` (stereo partly drawn) [Example 119, (2S)-1-[(2R)-2-[(4-carbamoylcyclohexyl)amino]-2-(trans-4-piperidin-1-ylcyclohexyl)acetyl]-4-[(4S,5S)-4-methyl-5-phenyl-4,5-dihydro-1,3-oxazol-2-yl]-N-(thiophen-2-ylmethyl)piperazine-2-carboxamide] was tested, and the IC50 was 1.5 nM.
`CCS(=O)(=O)N1CCC([C@@H](NC2CCCCC2)C(=O)N2CCN(C(=O)Oc3ccccc3Cl)C[C@H]2C(=O)NCc2cccs2)CC1` [Example 61, 2-chlorophenyl (3S)-4-{(2R)-2-(cyclohexylamino)-2-[1-(ethylsulfonyl)piperidin-4-yl]acetyl}-3-[(thiophen-2-ylmethyl)carbamoyl]piperazine-1-carboxylate] showed an IC50 of 4.2 nM.
`CN(C)CCCC[C@@H](NC1CCC2(CC1)CCN(Cc1ccccc1)C2)C(=O)N1CCN(C2=NC(C)(C)CO2)C[C@H]1C(=O)NCc1cccs1` (stereo partly drawn) [Example 141, (2S)-1-[N^2-(2-benzyl-2-azaspiro[4.5]dec-8-yl)-N^6,N^6-dimethyl-D-lysyl]-4-(4,4-dimethyl-4,5-dihydro-1,3-oxazol-2-yl)-N-(thiophen-2-ylmethyl)piperazine-2-carboxamide] gave an IC50 of 9.2 nM.
`O=C(NCc1cccs1)[C@@H]1CN(C(=O)Oc2ccccc2Cl)CCN1C(=O)[C@@H](CCCCN1CCOCC1)NC1CCC2(CC1)CCN(Cc1ccccc1)C2` (stereo partly drawn) [Example 95, 2-chlorophenyl (3S)-4-[N-(2-benzyl-2-azaspiro[4.5]dec-8-yl)-6-morpholin-4-yl-D-norleucyl]-3-[(thiophen-2-ylmethyl)carbamoyl]piperazine-1-carboxylate] gave an IC50 of 1.8 nM.
`C[C@@H]1N=C(N2CCN(C(=O)[C@@H](CCCCNS(C)(=O)=O)NC3CCCCC3)[C@H](C(=O)NCc3cccs3)C2)O[C@H]1c1cccc(C#N)c1` [Example 116, (2S)-4-[(4S,5S)-5-(3-cyanophenyl)-4-methyl-4,5-dihydro-1,3-oxazol-2-yl]-1-[N^2-cyclohexyl-N^6-(methylsulfonyl)-D-lysyl]-N-(thiophen-2-ylmethyl)piperazine-2-carboxamide] showed an IC50 of 17.8 nM.
Compound `C[C@@H]1N=C(N2CCN(C(=O)[C@@H](CCCCNS(C)(=O)=O)NC3CCCCC3)[C@H](C(=O)NCc3cccs3)C2)O[C@@H]1c1ccccc1` [Example 152, (2S)-1-[N^2-cyclohexyl-N^6-(methylsulfonyl)-D-lysyl]-4-[(4S,5R)-4-methyl-5-phenyl-4,5-dihydro-1,3-oxazol-2-yl]-N-(thiophen-2-ylmethyl)piperazine-2-carboxamide] has an IC50 of 34.2 nM.
Compound `C[C@@H]1N=C(N2CCN(C(=O)[C@H](N)CCCCN3CCCCC3)[C@H](C(=O)NCc3cccc(Cl)c3)C2)O[C@H]1c1cccc(Br)c1` [Example 167, (2S)-4-[(4S,5S)-5-(3-bromophenyl)-4-methyl-4,5-dihydro-1,3-oxazol-2-yl]-N-(3-chlorobenzyl)-1-(6-piperidin-1-yl-D-norleucyl)piperazine-2-carboxamide] has an IC50 of 36.1 nM.
`Cc1ncnc2c(OC(=O)N3CCN(C(=O)[C@@H](CC4CCCCC4)NC4CCCCC4)[C@H](C(=O)NCc4cccs4)C3)cccc12` [Example 29, 4-methylquinazolin-8-yl (3S)-4-(N,3-dicyclohexyl-D-alanyl)-3-[(thiophen-2-ylmethyl)carbamoyl]piperazine-1-carboxylate] showed an IC50 of 3.3 nM.
`CN(C)CCCC[C@H](C(=O)N1CCN(C2=NC(C)(C)C(c3ccccc3)O2)C[C@H]1C(=O)NCc1ccc2[nH]cc(Cl)c2c1)N(C)C` (stereo partly drawn) [Example 146, (2S)-N-[(3-chloro-1H-indol-5-yl)methyl]-4-(4,4-dimethyl-5-phenyl-4,5-dihydro-1,3-oxazol-2-yl)-1-(N^2,N^2,N^6,N^6-tetramethyl-D-lysyl)piperazine-2-carboxamide] was tested, and the IC50 was 5.7 nM.
Work on `Cc1ccc(OC(=O)N2CCN(C(=O)[C@@H](CCCCNC(C)C)NC3CCCCC3)[C@H](C(=O)NCc3cccs3)C2)c(Cl)c1C` [Example 102, 2-chloro-3,4-dimethylphenyl (3S)-4-[N^2-cyclohexyl-N^6-(1-methylethyl)-D-lysyl]-3-[(thiophen-2-ylmethyl)carbamoyl]piperazine-1-carboxylate] yielded an IC50 of 0.7 nM.
`CC(C)N[C@H](CCCCN1CCCCC1)C(=O)N1CCN(C2=N[C@@H](C)[C@H](c3ccccc3)O2)C[C@H]1C(=O)NCc1ccc(CN)c(Cl)c1` [Example 179, (2S)-N-[4-(aminomethyl)-3-chlorobenzyl]-1-[N-(1-methylethyl)-6-piperidin-1-yl-D-norleucyl]-4-[(4S,5S)-4-methyl-5-phenyl-4,5-dihydro-1,3-oxazol-2-yl]piperazine-2-carboxamide] gave an IC50 of 1.7 nM.
For `C[C@@H]1N=C(N2CCN(C(=O)[C@@H](CCCCN(C)C)NC3CCCCC3)[C@H](C(=O)NCc3cccs3)C2)O[C@H]1c1cccc(C#N)c1` [Example 138, (2S)-4[(4S,5S)-5-(3-cyanophenyl)-4-methyl-4,5-dihydro-1,3-oxazol-2-yl]-1-(N^2-cyclohexyl-N^6,N^6-dimethyl-D-lysyl)-N-(thiophen-2-ylmethyl)piperazine-2-carboxamide], the IC50 was 1.4 nM.
`CS(=O)(=O)NCCCC[C@@H](NC1CCC2(CC1)CCN(Cc1ccccc1)C2)C(=O)N1CCN(C(=O)Oc2ccccc2Cl)C[C@H]1C(=O)NCc1cccs1` (stereo partly drawn) [Example 54, 2-chlorophenyl (3S)-4-[N^2-(2-benzyl-2-azaspiro[4.5]dec-8-yl)-N~6~- (methylsulfonyl)-D-lysyl]-3-[(thiophen-2-ylmethyl)carbamoyl]piperazine-1-carboxylate] was tested, and the IC50 was 8.1 nM.
`O=C(NCc1cccs1)[C@@H]1CN(C(=O)Oc2ccccc2Cl)CCN1C(=O)[C@@H](CCCCN1CCCS1(=O)=O)NC1CCCCC1` [Example 77, 2-chlorophenyl (3S)-4-[N-cyclohexyl-6-(1,1-dioxidoisothiazolidin-2-yl)-D-norleucyl]-3-[(thiophen-2-ylmethyl)carbamoyl]piperazine-1-carboxylate] showed an IC50 of 4.6 nM.
Work on `CN(C)CCCC[C@H](C(=O)N1CCN(C2=NC(C)(C)C(c3ccccc3)O2)C[C@H]1C(=O)NCc1ccc(C(N)=O)cc1)N(C)C` (stereo partly drawn) [Example 155, (2S)-N-(4-carbamoylbenzyl)-4-(4,4-dimethyl-5-phenyl-4,5-dihydro-1,3-oxazol-2-yl)-1-(N^2,N^2,N^6,N^6-tetramethyl-D-lysyl)piperazine-2-carboxamide] yielded an IC50 of 53.6 nM.
`NCc1ccc(OC(=O)N2CCN(C(=O)[C@@H](CC3CCCCC3)NC3CCC4(CC3)CCN(Cc3ccccc3)C4)[C@H](C(=O)NCc3cccs3)C2)c2ccccc12` (stereo partly drawn) [Example 59, 4-(aminomethyl)naphthalen-1-yl (3S)-4-[N-(2-benzyl-2-azaspiro[4.5]dec-8-yl)-3-cyclohexyl-D-alanyl]-3-[(thiophen-2-ylmethyl)carbamoyl]piperazine-1-carboxylate] was tested, and the IC50 was 4.6 nM.

— patent US10875851B2, “Factor XIIa inhibitors” (Merck Sharp & Dohme Corp., priority 2016, dated 2020)
